Data: the supplement of paper PMC10307832

Tests used:
Assay in all cases: relative viability (nuclei count vs DMSO), 5 days (fraction); higher = more cells survive
BI-D1870 + Tozasertib = compound: CC(C)CCN1c2nc(Nc3cc(F)c(O)c(F)c3)ncc2N(C)C(=O)C1C [BI-D1870] + Cc1cc(Nc2cc(N3CCN(C)CC3)nc(Sc3ccc(NC(=O)C4CC4)cc3)n2)n[nH]1 [Tozasertib] (partner 0.1 µM)
How it was run: (§1)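 Relative viability divides the nuclei count in treated wells by that in vehicle wells. Lung cancer cell lines were seeded in 1536-well plates, dosed by pin tool the next day, and fixed and stained after 5 days in one step with final 0.05% Triton X-100, 1% formaldehyde and 1 ug/ml Hoechst. Dosing was a single drug or a fixed anchor-drug dose plus five library-drug doses (not always all listed) in √10 steps, and values are medians of duplicate plates imaged at 4×.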

Zebularine + Navitoclax = compound: O=c1ncccn1[C@@H]1O[C@H](CO)[C@@H](O)[C@H]1O [Zebularine] + CC1(C)CCC(c2ccc(Cl)cc2)=C(CN2CCN(c3ccc(C(=O)NS(=O)(=O)c4ccc(N[C@H](CCN5CCOCC5)CSc5ccccc5)c(S(=O)(=O)C(F)(F)F)c4)cc3)CC2)C1 [Navitoclax] (partner 0.5 µM)
How it was run: as §1

Zebularine + Crizotinib = compound: O=c1ncccn1[C@@H]1O[C@H](CO)[C@@H](O)[C@H]1O [Zebularine] + C[C@@H](Oc1cc(-c2cnn(C3CCNCC3)c2)cnc1N)c1c(Cl)ccc(F)c1Cl [Crizotinib] (partner 1 µM)
How it was run: as §1

Zebularine + Pemetrexed = compound: O=c1ncccn1[C@@H]1O[C@H](CO)[C@@H](O)[C@H]1O [Zebularine] + Nc1nc2[nH]cc(CCc3ccc(C(=O)N[C@@H](CCC(=O)O)C(=O)O)cc3)c2c(=O)[nH]1 [Pemetrexed] (partner 0.2 µM)
How it was run: as §1

Row | Cell Line | relative viability (BI-D1870 + Tozasertib; first compound 0.04 µM) | relative viability (BI-D1870 + Tozasertib; first compound 0.1265 µM) | relative viability (BI-D1870 + Tozasertib; first compound 0.4 µM) | relative viability (BI-D1870 + Tozasertib; first compound 1.265 µM) | relative viability (BI-D1870 + Tozasertib; first compound 4 µM) | relative viability (Zebularine + Navitoclax; first compound 1 µM) | relative viability (Zebularine + Navitoclax; first compound 3.162 µM) | relative viability (Zebularine + Navitoclax; first compound 10 µM) | relative viability (Zebularine + Navitoclax; first compound 31.62 µM) | relative viability (Zebularine + Navitoclax; first compound 100 µM) | relative viability (Zebularine + Crizotinib; first compound 1 µM) | relative viability (Zebularine + Crizotinib; first compound 3.162 µM) | relative viability (Zebularine + Crizotinib; first compound 10 µM) | relative viability (Zebularine + Crizotinib; first compound 31.62 µM) | relative viability (Zebularine + Crizotinib; first compound 100 µM) | relative viability (Zebularine + Pemetrexed; first compound 1 µM) | relative viability (Zebularine + Pemetrexed; first compound 3.162 µM) | relative viability (Zebularine + Pemetrexed; first compound 10 µM) | relative viability (Zebularine + Pemetrexed; first compound 31.62 µM) | relative viability (Zebularine + Pemetrexed; first compound 100 µM)
1 | BEN | 0.557 | 0.618 | 0.438 | 0.548 | 0.605 | 0.0641 | 0.0628 | 0.162 | 0.0748 | 0.0383 | 0.812 | 0.81 | 0.433 | 0.37 | 0.328 | 0.943 | 0.636 | 0.584 | 0.562 | 0.306
2 | NCI-H1666 | 0.673 | 0.569 | 0.584 | 0.569 | 0.537 | 0.98 | 1.05 | 0.857 | 1.08 | 0.575 | 1.01 | 0.783 | 1.05 | 1.02 | 0.596 | 0.878 | 0.788 | 0.753 | 0.824 | 0.791
3 | LC-2-ad | 0.561 | 0.479 | 0.443 | 0.367 | 0.373 | 0.409 | 0.422 | 0.291 | 0.33 | 0.137 | 0.498 | 0.434 | 0.363 | 0.377 | 0.249 | 0.276 | 0.289 | 0.27 | 0.255 | 0.259
4 | SK-LU-1 | 0.365 | 0.276 | 0.262 | 0.339 | 0.204 | 0.965 | 0.868 | 0.435 | 0.61 | 0.306 | 1.02 | 0.843 | 0.531 | 0.79 | 0.583 | 1.03 | 0.922 | 0.52 | 0.523 | 0.542
5 | ChaGo-K-1 | 0.224 | 0.203 | 0.201 | 0.236 | 0.22 | 1.18 | 0.891 | 0.562 | 0.538 | 0.292 | 1.09 | 1 | 0.603 | 0.406 | 0.39 | 0.269 | 0.257 | 0.254 | 0.242 | 0.203
6 | COR-L 105 | 0.416 | 0.319 | 0.343 | 0.341 | 0.33 | 0.642 | 0.738 | 0.674 | 0.768 | 0.747 | 1.07 | 0.785 | 0.503 | 0.718 | 0.729 | 1.26 | 1.06 | 0.987 | 1.24 | 0.824
7 | NCI-H1975 | 0.79 | 0.509 | 0.223 | 0.176 | 0.145 | 1.13 | 1.08 | 0.64 | 0.575 | 0.229 | 1.02 | 1.07 | 0.513 | 0.317 | 0.265 | 0.323 | 0.283 | 0.235 | 0.206 | 0.2
8 | NCI-H1993 | 0.606 | 0.602 | 0.58 | 0.566 | 0.612 | 0.946 | 0.946 |  | 1.02 | 0.754 | 0.732 | 0.801 |  | 0.862 | 0.646 | 0.612 | 0.65 | 0.518 | 0.58 | 0.585
9 | RERF-LC-KJ | 0.467 | 0.398 | 0.418 | 0.338 | 0.239 |  | 1.08 | 0.507 | 0.939 | 0.968 | 1.01 | 0.826 |  | 0.885 | 0.977 | 0.447 | 0.505 | 0.415 | 0.507 | 0.443
10 | NCI-H23 | 0.433 | 0.26 | 0.267 | 0.314 | 0.214 | 0.775 | 0.802 |  | 0.818 | 0.86 | 0.482 | 0.559 |  | 0.456 | 0.5 | 0.777 | 0.706 |  | 0.649 | 0.494
11 | HCC-366 | 0.0892 | 0.057 | 0.055 | 0.0986 | 0.0506 | 1.12 | 1.02 | 0.449 | 0.556 | 0.0921 | 0.774 | 0.637 | 0.2 | 0.265 | 0.133 | 0.168 | 0.179 | 0.136 | 0.192 | 0.0894
12 | EMC-BAC-2 | 0.317 | 0.248 | 0.316 | 0.288 | 0.259 | 1.35 | 1.15 | 0.683 | 1.28 | 1.3 | 0.795 | 0.67 | 0.689 | 0.777 | 0.824 | 0.496 | 0.466 | 0.428 | 0.458 | 0.474
13 | NCI-H2405 | 0.837 | 0.697 | 0.728 | 0.846 | 0.421 | 0.913 | 0.831 | 0.798 | 0.833 | 0.61 | 0.845 | 0.825 | 0.621 | 0.846 | 0.56 | 1.14 | 0.913 | 0.795 | 1.09 | 0.681
14 | NCI-H1944 | 0.293 | 0.233 | 0.25 | 0.262 | 0.235 | 1.11 | 0.984 | 0.705 | 0.9 | 0.669 | 1.21 | 1.06 | 0.681 | 0.87 | 0.666 | 0.696 | 0.604 | 0.614 | 0.573 | 0.357
15 | EPLC-272H | 0.37 | 0.242 | 0.232 | 0.247 | 0.238 | 1.45 |  |  | 1.26 | 0.639 | 0.969 |  |  | 0.839 | 0.685 | 0.36 | 0.331 |  | 0.342 | 0.264
16 | NCI-H1915 | 0.466 | 0.395 | 0.389 | 0.427 | 0.313 | 0.816 | 0.769 | 0.565 | 0.872 | 0.771 | 1.18 | 0.911 | 0.649 | 0.926 | 0.698 | 0.54 | 0.46 | 0.449 | 0.553 | 0.513
17 | NCI-H596 | 0.953 | 0.82 | 0.901 | 0.81 | 0.905 | 0.974 | 0.9 | 0.799 | 0.984 | 0.893 | 0.994 | 0.948 | 0.85 | 0.902 | 0.988 | 0.478 | 0.513 | 0.428 | 0.42 | 0.494
18 | NCI-H322M | 0.494 | 0.508 | 0.456 | 0.495 | 0.41 | 1.37 | 1.19 | 1.13 | 0.917 | 0.82 | 0.969 | 0.897 | 0.804 | 0.821 | 0.523 | 0.595 | 0.565 | 0.501 | 0.635 | 0.59
19 | NCI-H2228 | 0.226 | 0.205 | 0.163 | 0.164 | 0.134 | 1.46 | 0.843 | 0.655 | 0.722 | 0.191 | 0.462 | 0.38 | 0.42 | 0.521 | 0.37 | 0.403 | 0.293 |  | 0.264 | 0.152
20 | NCI-H647 | 0.399 | 0.251 | 0.442 | 0.385 | 0.138 | 1.25 | 1.06 | 0.232 | 0.143 | 0.115 | 1.18 | 0.981 | 0.254 | 0.142 | 0.228 | 0.18 | 0.183 | 0.149 | 0.115 | 0.115
21 | SK-MES-1 | 1.06 | 0.82 | 0.766 | 0.607 | 0.22 | 1.41 | 1.32 | 0.781 | 0.526 | 0.33 | 1.07 | 1.03 | 0.645 | 0.648 | 0.325 | 1.08 | 0.918 | 0.613 | 0.709 | 0.322
22 | NCI-H2170 | 0.701 | 0.715 | 0.713 | 0.648 | 0.574 | 0.694 | 0.642 | 0.453 | 0.574 | 0.432 | 1.31 | 1.13 | 0.7 | 0.981 | 0.517 | 0.273 | 0.289 | 0.273 | 0.27 | 0.221
23 | NCI-H2085 | 0.816 | 0.735 | 0.544 | 0.547 | 0.401 | 1.19 | 1.17 | 0.868 | 1.08 | 0.573 | 0.986 | 0.814 | 0.827 | 0.804 | 0.488 | 0.913 | 0.881 | 0.753 | 0.877 | 0.495
24 | SW 1573 | 0.175 | 0.16 | 0.159 | 0.176 | 0.175 | 1.04 | 0.735 | 0.6 | 0.947 | 0.529 | 0.72 | 0.776 | 0.44 | 0.831 | 0.574 | 0.798 | 0.854 |  | 0.855 | 0.522
25 | NCI-H441 | 0.56 | 0.531 | 0.59 | 0.504 | 0.407 | 0.815 | 0.467 | 0.366 | 0.368 | 0.245 | 0.874 | 0.657 | 0.289 | 0.173 | 0.219 | 0.274 | 0.248 | 0.302 | 0.185 | 0.166
26 | LOU-NH91 | 0.688 | 0.536 | 0.695 | 0.586 | 0.405 | 0.676 | 0.659 | 0.634 | 0.603 | 0.395 | 0.713 | 0.732 | 0.693 | 0.738 | 0.647 | 0.368 | 0.415 | 0.419 | 0.355 | 0.398
27 | NCI-H3122 | 0.456 | 0.471 | 0.401 | 0.415 | 0.204 | 1.06 | 1.02 | 0.943 | 1.08 | 1.02 | 0.268 | 0.248 | 0.243 | 0.298 | 0.235 | 0.189 | 0.183 | 0.175 | 0.225 | 0.225
